# According to patent US20260092061A1, “COMPOUNDS FOR TARGETED PROTEIN DEGRADATION” (Amphista Therapeutics Limited, priority 2022, published 2026):
# Read-outs that look alike come from different tables or passages of the source.
# Key:
# BRD7 = target: T1, BRD7 (Homo sapiens, UniProt Q9NPI1); assay: BRD7 degradation, HiBiT-BRD7 KI HEK293 (LgBiT) cells, NanoGlo Lytic Endpoint assay (Assay Protocol 1); format: cell-based; conditions: for Dmax / Dmax at 1 µM: HEK293; for Dmax / DC50: Table 5, assay protocol 1; for Dmax at 1 µM: Table 3, assay 1, 1 μM compound at 5 h of treatment
# T1 construct: HiBiT-BRD7 KI HEK293 (LgBiT) Cells (Promega CS3023410); host or cells: HEK293 (LgBiT), HiBiT knock-in at the BRD7 locus
# T1 sequence (Q9NPI1 1-651): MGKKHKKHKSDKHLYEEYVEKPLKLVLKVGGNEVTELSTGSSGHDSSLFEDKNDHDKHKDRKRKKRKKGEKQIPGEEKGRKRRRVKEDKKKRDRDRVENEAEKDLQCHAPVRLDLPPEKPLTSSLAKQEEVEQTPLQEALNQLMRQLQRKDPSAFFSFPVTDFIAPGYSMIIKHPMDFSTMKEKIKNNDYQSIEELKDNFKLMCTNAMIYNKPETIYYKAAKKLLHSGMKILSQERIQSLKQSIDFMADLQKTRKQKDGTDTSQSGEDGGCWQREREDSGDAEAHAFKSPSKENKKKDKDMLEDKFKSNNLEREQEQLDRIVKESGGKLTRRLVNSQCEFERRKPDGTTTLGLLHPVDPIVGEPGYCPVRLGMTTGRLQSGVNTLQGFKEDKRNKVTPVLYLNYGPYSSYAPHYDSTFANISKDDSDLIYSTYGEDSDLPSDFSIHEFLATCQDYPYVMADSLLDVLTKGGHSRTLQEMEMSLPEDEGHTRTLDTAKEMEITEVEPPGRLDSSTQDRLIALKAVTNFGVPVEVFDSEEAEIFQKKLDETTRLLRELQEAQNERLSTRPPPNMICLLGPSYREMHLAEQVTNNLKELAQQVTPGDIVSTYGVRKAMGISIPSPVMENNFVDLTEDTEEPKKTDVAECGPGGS
# Procedure: HiBiT-BRD9 KI HEK293 (LgBiT) Cells (Promega CS3023412) were seeded at 8000 cells per well (38 μL) in sterile white bottom 384 well plates (Invitrogen 164610 or Greiner 781080) and incubated overnight at 37° C. with 5% CO2. The next day, compounds were prepared at 1000× final concentration in DMSO and diluted 1:100 in media (DMEM PAN Biotech P04-03550+10% FBS ATCC 302025). […] The lytic buffer was equilibrated to room temperature for 10-15 min before lytic reagent was prepared by adding substrate (1:50) and LgBit protein (1:100) in lytic buffer. 40 μL lytic reagent mix was added to each well of the cel plate and plates were centrifuged briefly at ˜50g. Plates were incubated with shaking (350 RPM) for 12-24 min before reading using the LUM plus module of a BMG Pherastar FSX. Data was analysed using Dotmatics software and % BRD9 remaining was calculated by normalisation to average data from high and low control wells (DMSO treated cels and no cells respectively).
# BRD7 degradation was determined in line with the procedure as outlined above for BRD9, with the exception that HiBiT-BRD7 KI HEK293 (LgBiT) Cells (Promega CS3023410) were seeded at 8000 cells per well (CPW) (36 uL) in sterile white bottom 384 well plates (Invitrogen 164610 or Greiner 781080) and incubated overnight at 37° C. with 5% CO2.
# BRD9 = target: T2, BRD9 (Homo sapiens, UniProt Q9H8M2); assay: Degradation of BRD9 (IF), immunofluorescence in MV4-11 cells, 24 hours (Assay Protocol 2); format: cell-based; design: A suspension of MV4-11 cells (ATCC CRL-9591) was prepared; host or cells: MV4-11
# T2 sequence (Q9H8M2 1-597): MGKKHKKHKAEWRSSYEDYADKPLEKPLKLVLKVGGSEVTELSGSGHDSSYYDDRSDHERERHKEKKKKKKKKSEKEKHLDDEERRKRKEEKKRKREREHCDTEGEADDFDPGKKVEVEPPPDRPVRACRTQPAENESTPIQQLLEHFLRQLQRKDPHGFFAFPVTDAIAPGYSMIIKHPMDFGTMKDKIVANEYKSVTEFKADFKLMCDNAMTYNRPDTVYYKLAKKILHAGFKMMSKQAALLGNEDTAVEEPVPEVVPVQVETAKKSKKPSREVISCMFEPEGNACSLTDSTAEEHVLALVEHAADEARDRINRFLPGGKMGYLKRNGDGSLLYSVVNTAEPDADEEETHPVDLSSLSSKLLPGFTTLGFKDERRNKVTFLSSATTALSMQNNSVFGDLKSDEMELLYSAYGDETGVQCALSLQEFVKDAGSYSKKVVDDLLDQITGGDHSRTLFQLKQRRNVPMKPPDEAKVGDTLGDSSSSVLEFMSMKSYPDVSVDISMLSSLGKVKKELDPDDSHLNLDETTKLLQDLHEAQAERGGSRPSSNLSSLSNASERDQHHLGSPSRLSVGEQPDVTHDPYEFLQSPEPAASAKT
# Summary of the method: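 % BRD9 remaining, scaled between DMSO (high) and 100 nM CFT-8634 (low) control wells, derives from mean Alexa 647 contrast in central nuclei by high-content imaging. MV4-11 cells had 24 h compound exposure at 37° C. before PFA fixation, Triton permeabilisation and anti-BRD9 E4Q3F immunostaining.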
# [1] = MV4-11, Table 4, BRD9 degradation, determined according to Assay Protocol 2, read-out: Dmax^2
# [2] = Table 4, BRD9 degradation, determined according to Assay Protocol 2, read-out: DC50^2
# [3] = MV4-11, 24 h, Table 2, BRD9 degradation (IF), Assay Protocol 2, MV4-11 cells, read-out: Assay 2 DCmax
# [4] = Table 2, BRD9 degradation (IF), Assay Protocol 2, MV4-11 cells, read-out: Assay 2 DC50
# [5] = MV4-11, Table 5, cells marked *: measured in accordance with Assay Protocol 2, read-out: BRD9 Dmax (%)
# [6] = Table 5, cells marked *: measured in accordance with Assay Protocol 2, read-out: BRD9 DC50
SMILES,Dmax (BRD7),DC50 (BRD7),Dmax (BRD9; [1]),DC50 (BRD9; [2]),Dmax at 1 µM (BRD7),Dmax (BRD9; [3]),DC50 (BRD9; [4]),Dmax (BRD9; [5]),DC50 (BRD9; [6])
"COc1cc(-c2cn(C)c(=O)c(C)c2C)cc(OC)c1CN1C2CC1CN(C(=O)/C(C#N)=C/c1cccc(Br)n1)C2 (mixture of isomers) [BRD9o, (E/Z)-3-(6-bromopyridin-2-yl)-2-(6-(2,6-dimethoxy-4-(1,4,5-trimethyl-6-oxo-1,6-dihydropyridin-3-yl)benzyl)-3,6-diazabicyclo[3.1.1]heptane-3-carbonyl)acrylonitrile]",25 to 40%,> 1000 nM,,25 to 200 nM,,,,,
"COc1cc(-c2cn(C)c(=O)c(C)c2C)cc(OC)c1CN1CCN(Cc2cccc3c2CCN(C(=O)/C(C#N)=C/c2nccs2)C3C)CC1 (mixture of isomers) [Compound A4, (E/Z)-2-(5-((4-(2,6-dimethoxy-4-(1,4,5-trimethyl-6-oxo-1,6-dihydropyridin-3-yl)benzyl)piperazin-1-yl)methyl)-1-methyl-1,2,3,4-tetrahydroisoquinoline-2-carbonyl)-3-(thiazol-2-yl)acrylonitrile]",,,,,< 25%,70 to 75%,< 1.25 nM,,
"COc1cc(-c2cn(C)c(=O)c3cnccc23)cc(OC)c1CN1CCN(Cc2cccc3c2CCN(C(=O)/C(C#N)=C\c2ncc(C)s2)C3C)CC1 (mixture of isomers) [Compound A10, (E/Z)-2-(5-((4-(2,6-dimethoxy-4-(2-methyl-1-oxo-1,2-dihydro-2,7-naphthyridin-4-yl)benzyl)piperazin-1-yl)methyl)-1-methyl-1,2,3,4-tetrahydroisoquinoline-2-carbonyl)-3-(5-methylthiazol-2-yl)acrylonitrile]",,,,,25 to 40%,40 to 70%,< 1.25 nM,,
"COc1cc(-c2cn(C)c(=O)c(C)c2C)cc(OC)c1CN1CCN(Cc2cccc3c2CCN(C(=O)/C(C#N)=C/c2cccc(Br)n2)C3C)CC1 (mixture of isomers) [Compound A16, (E/Z)-3-(6-bromopyridin-2-yl)-2-(5-((4-(2,6-dimethoxy-4-(1,4,5-trimethyl-6-oxo-1,6-dihydropyridin-3-yl)benzyl)piperazin-1-yl)methyl)-1-methyl-1,2,3,4-tetrahydroisoquinoline-2-carbonyl) acrylonitrile]",,,,,25 to 40%,40 to 70%,< 1.25 nM,,
COc1cc(-c2cn(C)c(=O)c3cnccc23)cc(OC)c1CN(C)Cc1cccc2c1CCN(C(=O)/C(C#N)=C/c1cccc(Br)n1)C2C (mixture of isomers) [Compound A50],,,,,25 to 40%,> 75%,1.25 to 10 nM,,
"COc1cc(-c2cn(C)c(=O)c(C)c2C)cc(OC)c1CN1CCC(Oc2cccc3c2CCN(C(=O)/C(C#N)=C/c2cccc(Br)n2)C3C)CC1 (mixture of isomers) [Compound A68, (E/Z)-3-(6-bromopyridin-2-yl)-2-(5-((1-(2,6-dimethoxy-4-(1,4,5-trimethyl-6-oxo-1,6-dihydropyridin-3-yl)benzyl)piperidin-4-yl)oxy)-1-methyl-1,2,3,4-tetrahydroisoquinoline-2-carbonyl)acrylonitrile]",,,,,< 25%,40 to 70%,< 1.25 nM,,
"COc1cc(-c2cn(C)c(=O)c(C)c2C)cc(OC)c1CN1CC2CC(C1)N2Cc1cccc2c1CCN(C(=O)/C(C#N)=C/C(C)(C)C)C2C (mixture of isomers) [Compound A71, (E/Z)-2-(5-((3-(2,6-dimethoxy-4-(1,4,5-trimethyl-6-oxo-1,6-dihydropyridin-3-yl)benzyl)-3,6-diazabicyclo[3.1.1]heptan-6-yl)methyl)-1-methyl-1,2,3,4-tetrahydroisoquinoline-2-carbonyl)-4,4-dimethylpent-2-enenitrile]",,,,,40 to 70%,> 75%,< 1.25 nM,,
"COc1cc(-c2cn(C)c(=O)c(C)c2C)cc(OC)c1CN1CCCN(Cc2cccc3c2CCN(C(=O)/C(C#N)=C/C(C)(C)C)C3C)CC1 (mixture of isomers) [Compound A72, (E/Z)-2-(5-((4-(2,6-dimethoxy-4-(1,4,5-trimethyl-6-oxo-1,6-dihydropyridin-3-yl)benzyl)-1,4-diazepan-1-yl)methyl)-1-methyl-1,2,3,4-tetrahydroisoquinoline-2-carbonyl)-4,4-dimethylpent-2-enenitrile]",,,,,< 25%,40 to 70%,10 to 25 nM,,
"COc1cc(-c2cn(C)c(=O)c(C)c2C)cc(OC)c1CN(C)C(=O)/C(C#N)=C/C(C)(C)C [BRD9ac, (E/Z)-2-cyano-N-(2,6-dimethoxy-4-(1,4,5-trimethyl-6-oxo-1,6-dihydropyridin-3-yl)benzyl)-N,4,4-trimethylpent-2-enamide]",70 to 75%,25 to 1000 nM,50 to 70%,,,,,40 to 70%,25 to 1000 nM

# Other lines, results leading:
Dmax (BRD7),DC50 (BRD7),Dmax (BRD9; [1]),DC50 (BRD9; [2]),Dmax at 1 µM (BRD7),Dmax (BRD9; [3]),DC50 (BRD9; [4]),Dmax (BRD9; [5]),DC50 (BRD9; [6]),SMILES
< 25%,> 1000 nM,50 to 70%,< 25 nM,,,,,,COc1cc(-c2cn(C)c(=O)c(C)c2C)cc(OC)c1CN1CC2CC1CN2C(=O)/C(C#N)=C/C(C)(C)C (mixture of isomers) [BRD9b]
25 to 40%,> 1000 nM,,< 25 nM,,,,,,"COc1cc(-c2cn(C)c(=O)c(C)c2C)cc(OC)c1CN1CC2CC1CN2C(=O)/C(C#N)=C/c1nccs1 (mixture of isomers) [BRD9i, (E/Z)-2-(5-(2,6-dimethoxy-4-(1,4,5-trimethyl-6-oxo-1,6-dihydropyridin-3-yl)benzyl)-2,5-diazabicyclo[2.2.1]heptane-2-carbonyl)-3-(thiazol-2-yl)acrylonitrile]"
< 25%,> 1000 nM,50 to 70%,,,,,,,"COc1cc(-c2cn(C)c(=O)c(C)c2C)cc(OC)c1CN1CCN(C(=O)/C(C#N)=C/C(C)(C)C)CC1 [BRD9a, (E/Z)-2-(4-(2,6-dimethoxy-4-(1,4,5-trimethyl-6-oxo-1,6-dihydropyridin-3-yl)benzyl)piperazine-1-carbonyl)-4,4-dimethylpent-2-enenitrile]"
< 25%,> 1000 nM,> 70%,< 25 nM,,,,> 75%,< 1.25 nM,"COc1cc(-c2cn(C)c(=O)c(C)c2C)cc(OC)c1CN1CCCN(C(=O)/C(C#N)=C/C(C)(C)C)CC1 [BRD9c, (E/Z)-2-(4-(2,6-dimethoxy-4-(1,4,5-trimethyl-6-oxo-1,6-dihydropyridin-3-yl)benzyl)-1,4-diazepane-1-carbonyl)-4,4-dimethylpent-2-enenitrile]"
